# Reference: US10226464B2, “Small molecule NF-κB inhibitors” (ImmuneTarget, Inc., priority 2015, dated 2019)
# Legend:
# [1] = test system: NF-κB; assay: NF-κB GFP Assay (NFκB/Jurkat/GFP transcriptional reporter cell line); format: cell-based; details: Homo sapiens; NF-κB/Jurkat/GFP reporter cells, TNF-α 5 ng/ml, 24 hours; read-out: NF-KB GFP IC50
# Method: NFκB/Jurkat/GFP transcriptional reporter cell line was obtained from SBI System Biosciences. NF-κB/Jurkat/GFP™ Reporter cells (5×10^5 cells) were plated at a concentration of 1 million cells/ml into each well of a 24-well plate. TNF-α (5 ng/ml) was added. Compounds were added via serial dilutions to corresponding wells. After 24 hours, 100 μl of the cells were transferred to a well of a Costar® UV plate (96 well, No lid, w/ UV Transparent Flat Bottom, Corning, N.Y., Cat#3635) and the intensity of GFP fluorescence was measured (Excitation 485+/−20, Emission 528+/−20) in a Synergy™ HT Multi-Detection Microplate Reader (BioTech, Winooski, Vt.). The intensities of GFP measured were plotted against the […].
# [2] = target: c-Rel protein (Homo sapiens (Human), UniProt Q04864); assay: Electrophoretic Mobility Shift Assay (EMSA), Rel/NF-κB DNA binding inhibition; details: 10 nM c-Rel protein, phosphor-labeled CD28RE oligonucleotide
# Chain of c-Rel protein (Q04864 whole entry): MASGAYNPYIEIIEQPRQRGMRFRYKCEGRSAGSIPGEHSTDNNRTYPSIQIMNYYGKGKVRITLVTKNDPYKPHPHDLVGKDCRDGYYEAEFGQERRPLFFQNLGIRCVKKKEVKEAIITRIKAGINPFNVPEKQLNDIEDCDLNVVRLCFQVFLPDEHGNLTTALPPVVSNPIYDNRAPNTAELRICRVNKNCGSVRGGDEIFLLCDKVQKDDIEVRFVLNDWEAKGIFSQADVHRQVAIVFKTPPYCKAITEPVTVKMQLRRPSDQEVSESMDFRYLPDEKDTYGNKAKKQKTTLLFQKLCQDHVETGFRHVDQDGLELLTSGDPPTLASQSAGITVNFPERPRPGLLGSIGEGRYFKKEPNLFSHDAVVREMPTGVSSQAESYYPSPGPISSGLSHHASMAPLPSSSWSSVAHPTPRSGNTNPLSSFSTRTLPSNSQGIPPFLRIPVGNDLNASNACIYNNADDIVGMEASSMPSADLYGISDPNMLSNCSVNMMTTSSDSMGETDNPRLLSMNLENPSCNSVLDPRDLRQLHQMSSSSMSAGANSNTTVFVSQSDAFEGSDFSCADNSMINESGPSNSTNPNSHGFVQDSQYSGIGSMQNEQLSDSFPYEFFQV
# Method: Electrophoretic Mobility Shift Assay (EMSA)
# DNA binding reaction (20 μL) was carried out in 1×DNA Binding Buffer (10 mM Tris, 40 mM NaCl, 1 mM EDTA, 4% glycerol) with 10 nM c-Rel protein and 0.5 ng phosphor-labeled CD28RE oligonucleotide for 10 minutes at room temperature in 96-well plates. Test compounds, in serial dilutions, were added into each well, and further incubated for 15 minutes before loading onto native 5% polyacrylamide gel. Electrophoresis proceeded for 2.5 hours at 160V. Radioactive signals were quantified using Phospho-Imager. IC50 of compounds of example 1 to 75 were determined by quantifying the intensity of Rel/NF-κB inhibition in EMSA using phospho-imager. An example of EMSA data of the present invention is shown for compound 6 in FIG. 2.
IC50 [1] [µM],IC50 [2] [µM],SMILES
< 30,< 2,"COc1cccc2cc3c(=O)[nH]c(=O)nc-3oc12 [Compound 1, 9-methoxy-2H-chromeno[2,3-d]pyrimidine-2,4(3H)-dione]"
< 30,< 2,"CCOc1cccc2cc3c(=O)[nH]c(=O)nc-3oc12 [Compound 2, 9-ethoxy-2H-chromeno[2,3-d]pyrimidine-2,4(3H)-dione]"
< 30,< 2,"COc1cc(Cl)cc2cc3c(=O)[nH]c(=O)nc-3oc12 [Compound 3, 7-chloro-9-methoxy-2H-chromeno[2,3-d]pyrimidine-2,4(3H)-dione]"
< 30,< 2,"COc1cc(Br)cc2cc3c(=O)[nH]c(=O)nc-3oc12 [Compound 4, 7-bromo-9-methoxy-2H-chromeno[2,3-d]pyrimidine-2,4(3H)-dione]"
< 30,< 2,CCOc1cc(Cl)cc2cc3c(=O)[nH]c(=O)nc-3oc12 [Compound 5]
< 10,< 1,"COc1ccc2cc3c(=O)[nH]c(=O)nc-3oc2c1 [Compound 6, 8-methoxy-2H-chromeno[2,3-d]pyrimidine-2,4(3H)-dione]"
< 30,< 2,"COc1cc(Cl)cc2cc3c(=O)[nH]c(=S)nc-3oc12 [Compound 7, 7-chloro-9-methoxy-2-thioxo-2H-chromeno[2,3-d]pyrimidin-4(3H)-one]"
< 30,< 0.5,"COc1ccc2cc3c(=O)[nH]c(=S)nc-3oc2c1 [Compound 8, 8-methoxy-2-thioxo-2H-chromeno[2,3-d]pyrimidin-4(3H)-one]"
< 30,< 1,"COc1ccc2oc3nc(=O)[nH]c(=O)c-3cc2c1 [Compound 10, 7-methoxy-2H-chromeno[2,3-d]pyrimidine-2,4(3H)-dione]"
< 20,< 1,"O=c1nc2oc3cc(O)ccc3cc-2c(=O)[nH]1 [Compound 11, 8-hydroxy-2H-chromeno[2,3-d]pyrimidine-2,4(3H)-dione]"
7,< 1,"Cc1ccc2cc3c(=O)[nH]c(=O)nc-3oc2c1 [Compound 12, 8-methyl-2H-chromeno[2,3-d]pyrimidine-2,4(3H)-dione]"
9,< 1,"CCOc1ccc2cc3c(=O)[nH]c(=O)nc-3oc2c1 [Compound 13, 8-ethoxy-2H-chromeno[2,3-d]pyrimidine-2,4(3H)-dione]"
8.2,< 1,"COc1cc(OC)c2cc3c(=O)[nH]c(=O)nc-3oc2c1 [Compound 14, 6,8-dimethoxy-2H-chromeno[2,3-d]pyrimidine-2,4(3H)-dione]"
< 30,< 0.5,"COc1ccc2oc3nc(=S)[nH]c(=O)c-3cc2c1 [Compound 15, 7-methoxy-2-thioxo-2H-chromeno[2,3-d]pyrimidin-4(3H)-one]"
< 30,< 0.5,"O=c1[nH]c(=S)nc2oc3cc(O)ccc3cc1-2 [Compound 16, 8-hydroxy-2-thioxo-2H-chromeno[2,3-d]pyrimidin-4(3H)-one]"
< 30,< 0.5,"Cc1ccc2cc3c(=O)[nH]c(=S)nc-3oc2c1 [Compound 17, 8-methyl-2-thioxo-2H-chromeno[2,3-d]pyrimidin-4(3H)-one]"
,< 0.5,"COc1cc(OC)c2cc3c(=O)[nH]c(=S)nc-3oc2c1 [Compound 18, 6,8-dimethoxy-2-thioxo-2H-chromeno[2,3-d]pyrimidin-4(3H)-one]"
< 5,< 1,"CCCOc1ccc2cc3c(=O)[nH]c(=O)nc-3oc2c1 [Compound 19, 8-propoxy-2H-chromeno[2,3-d]pyrimidine-2,4(3H)-dione]"
< 5,< 1,"CCCOc1cc2oc3nc(=O)[nH]c(=O)c-3cc2cc1Cl [Compound 20, 7-chloro-8-propoxy-2H-chromeno[2,3-d]pyrimidine-2,4(3H)-dione]"
< 5,< 1,"CCCCCCOc1ccc2cc3c(=O)[nH]c(=O)nc-3oc2c1 [Compound 21, 8-(n-hexyloxy)-2H-chromeno[2,3-d]pyrimidine-2,4(3H)-dione]"
< 10,< 1,"CCOc1ccc2cc3c(=O)[nH]c(=O)nc-3oc2c1Cl [Compound 22, 9-chloro-8-ethoxy-2H-chromeno[2,3-d]pyrimidine-2,4(3H)-dione]"
< 30,< 1,"CCCCn1c(=O)nc2oc3cc(OCC)ccc3cc-2c1=O [Compound 24, 3-(n-butyl)-8-ethoxy-2H-chromeno[2,3-d]pyrimidine-2,4(3H)-dione]"
< 30,< 1,"CCCc1cc2oc3nc(=O)[nH]c(=O)c-3cc2cc1Cl [Compound 25, 7-chloro-8-propyl-2H-chromeno[2,3-d]pyrimidine-2,4(3H)-dione]"
< 30,< 1,"CCCCn1c(=O)nc2oc3cc(OCC)c(Cl)cc3cc-2c1=O [Compound 26, 3-butyl-7-chloro-8-ethoxy-2H-chromeno[2,3-d]pyrimidine-2,4(3H)-dione]"
< 5,< 0.5,"Cc1cc2oc3nc(=O)[nH]c(=O)c-3cc2cc1F [Compound 27, 7-fluoro-8-methyl-2H-chromeno[2,3-d]pyrimidine-2,4(3H)-dione]"

IC50 [1] [µM],IC50 [2] [µM],SMILES
< 5,< 0.5,"CCOc1cc2oc3nc(=O)[nH]c(=O)c-3cc2cc1F [Compound 28, 8-ethoxy-7-fluoro-2H-chromeno[2,3-d]pyrimidine-2,4(3H)-dione]"
< 5,< 0.5,CCCCOc1cc2oc3nc(=O)[nH]c(=O)c-3cc2cc1F [Compound 29]
< 10,< 0.5,CCCCCOc1cc2oc3nc(=O)[nH]c(=O)c-3cc2cc1F [Compound 30]
< 5,< 0.5,CCCCCCOc1cc2oc3nc(=O)[nH]c(=O)c-3cc2cc1F [Compound 31]
< 5,< 0.5,CCCCCCCOc1cc2oc3nc(=O)[nH]c(=O)c-3cc2cc1F [Compound 32]
< 3,< 0.5,CC(C)CCOc1cc2oc3nc(=O)[nH]c(=O)c-3cc2cc1F [Compound 33]
10,< 0.5,CC(C)(C)CCOc1cc2oc3nc(=O)[nH]c(=O)c-3cc2cc1F [Compound 34]
< 10,< 1,CC(C)CCCOc1cc2oc3nc(=O)[nH]c(=O)c-3cc2cc1F [Compound 35]
< 10,< 0.5,CC(C)(C)COc1cc2oc3nc(=O)[nH]c(=O)c-3cc2cc1F [Compound 36]
< 20,< 0.5,CCCCCCOc1cc2oc3nc(=O)[nH]c(=O)c-3cc2cc1Cl [Compound 37]
< 20,< 0.5,CC(C)COc1cc2oc3nc(=O)[nH]c(=O)c-3cc2cc1Cl [Compound 38]
< 3,< 0.5,CCCCCOc1ccc2cc3c(=O)[nH]c(=O)nc-3oc2c1Cl [Compound 39]
5,< 0.5,CC(C)CCOc1ccc2cc3c(=O)[nH]c(=O)nc-3oc2c1Cl [Compound 40]
< 10,< 0.5,CC(C)(C)CCOc1ccc2cc3c(=O)[nH]c(=O)nc-3oc2c1Cl [Compound 41]
< 10,< 0.5,CCCCCCCOc1ccc2cc3c(=O)[nH]c(=O)nc-3oc2c1Cl [Compound 42]
< 3,< 0.5,CCCCOc1ccc2cc3c(=O)[nH]c(=O)nc-3oc2c1Cl [Compound 43]
< 3,< 0.5,CCCCCCOc1ccc2cc3c(=O)[nH]c(=O)nc-3oc2c1Cl [Compound 44]
< 5,< 0.5,CCCCOc1ccc2cc3c(=O)[nH]c(=O)nc-3oc2c1F [Compound 45]
< 5,< 0.5,CCCCCCOc1ccc2cc3c(=O)[nH]c(=O)nc-3oc2c1F [Compound 46]
< 5,< 1,CC(C)CCCOc1ccc2cc3c(=O)[nH]c(=O)nc-3oc2c1F [Compound 47]
< 5,< 0.5,CC(C)COc1ccc2cc3c(=O)[nH]c(=O)nc-3oc2c1F [Compound 48]
< 5,< 1,"CCOc1ccc2cc3c(=O)[nH]c(=O)nc-3sc2c1 [Compound 49, 8-ethoxy-2H-thiochromeno[2,3-d]pyrimidine-2,4(3H)-dione]"
< 5,< 1,CCCCOc1ccc2cc3c(=O)[nH]c(=O)nc-3oc2c1 [Compound 50]
< 5,< 1,CC(=O)OCCCCOc1ccc2cc3c(=O)[nH]c(=O)nc-3oc2c1 [Compound 51]

SMILES,IC50 [1] [µM],IC50 [2] [µM]
"O=c1nc2oc3ccccc3cc-2c(=O)[nH]1 [Compound 9, 2H-chromeno[2,3-d]pyrimidine-2,4(3H)-dione]",< 20,< 5
"CC(C)COc1ccc2cc3c(=O)[nH]c(=O)nc-3oc2c1 [Compound 23, 8-isobutoxy-2H-chromeno[2,3-d]pyrimidine-2,4(3H)-dione]",< 5,< 1
